The source of these data is patent US9611262B2, “Substituted 2-azabicycles and their use as orexin receptor modulators” (JANSSEN PHARMACEUTICA NV, priority 2014, dated 2017).

One test concerns the target human orexin 2 receptor (Homo sapiens (Human), UniProt O43614). As to the kind of experiment: Human orexin 2 receptor radioligand binding ([3H]-EMPA competition). The settings on record: HEK293 stably expressing human orexin 2 receptor; 2 nM [3H]-EMPA; averages of 2-20 runs; read-out: hOX2 Ki. The method in brief: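 Membranes-free whole HEK293 cells stably expressing human OX2 receptor incubated with [3H]-EMPA and compound (7 concentrations, 0.1 nM–10 μM, ≤0.1% DMSO) for 60 min at room temperature; nonspecific binding with 10 μM almorexant. Filtration and scintillation counting; one-site IC50 converted to Ki using predetermined Kd, triplicates averaged over 2-20 runs.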

A further test deals with human orexin 1 receptor (Homo sapiens (Human), UniProt O43613). As to the kind of experiment: Human orexin 1 receptor radioligand binding (competitive). The settings on record: CHO cells stably expressing human orexin 1 receptor; 4 nM radioligand; averages of 2-20 runs; read-out: hOX1 Ki. The method in brief:
(§1)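 Competition binding used HEK293 cells expressing rat OX1 or CHO cells expressing human OX1, with 4 nM final [3H]-labelled thiazolyl-oxadiazolyl-pyrrolidinyl methanone radioligand in PBS. Compounds were tested at 7 concentrations (0.1 nM–10 μM) for 60 min at room temperature, then filtered; 10 μM almorexant defined nonspecific binding. Ki was derived from the one-site IC50 and the radioligand Kd.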

The target in a further test is rat orexin 1 receptor (Rattus norvegicus, UniProt P56718). Put plainly: Rat orexin 1 receptor radioligand binding (competitive). The following applies: HEK293 cells stably expressing rat orexin 1 receptor; 4 nM radioligand; averages of 2-20 runs; read-out: rOX1 Ki. The method in brief:
as §1

human orexin 1 receptor, sequence (O43613 whole entry): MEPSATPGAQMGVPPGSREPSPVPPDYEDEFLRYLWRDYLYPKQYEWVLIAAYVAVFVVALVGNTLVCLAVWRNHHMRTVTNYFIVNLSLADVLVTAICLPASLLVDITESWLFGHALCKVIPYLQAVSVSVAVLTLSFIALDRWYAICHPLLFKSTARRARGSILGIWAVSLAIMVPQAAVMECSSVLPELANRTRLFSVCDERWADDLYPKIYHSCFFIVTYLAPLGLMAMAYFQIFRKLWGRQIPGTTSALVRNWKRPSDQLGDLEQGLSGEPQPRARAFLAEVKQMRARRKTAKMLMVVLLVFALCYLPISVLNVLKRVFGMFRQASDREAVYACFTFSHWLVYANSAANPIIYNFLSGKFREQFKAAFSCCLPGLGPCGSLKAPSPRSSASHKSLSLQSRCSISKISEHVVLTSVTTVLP
human orexin 2 receptor, sequence (O43614 whole entry): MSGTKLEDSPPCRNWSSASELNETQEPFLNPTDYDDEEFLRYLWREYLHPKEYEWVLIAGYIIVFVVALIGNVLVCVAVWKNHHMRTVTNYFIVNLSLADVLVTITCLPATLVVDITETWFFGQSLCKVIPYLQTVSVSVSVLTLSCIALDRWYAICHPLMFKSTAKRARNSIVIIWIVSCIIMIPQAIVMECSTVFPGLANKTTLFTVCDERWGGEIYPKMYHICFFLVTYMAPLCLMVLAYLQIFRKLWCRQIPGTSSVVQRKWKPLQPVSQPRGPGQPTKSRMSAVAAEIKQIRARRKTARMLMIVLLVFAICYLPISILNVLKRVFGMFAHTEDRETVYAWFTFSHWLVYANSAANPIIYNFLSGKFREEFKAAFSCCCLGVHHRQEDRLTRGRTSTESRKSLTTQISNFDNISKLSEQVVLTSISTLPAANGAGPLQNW

On to `C[C@@H]1[C@H]2C[C@@H](Oc3ccc(C(F)(F)F)cn3)[C@H](C2)N1C(=O)c1ccccc1-c1cccc(Br)n1` [Example 175, [2-(6-bromo-2-pyridyl)phenyl]-[(1R,2R,4S,5R)-2-methyl-5-[[5-(trifluoromethyl)-2-pyridyl]oxy]-3-azabicyclo[2.2.1]heptan-3-yl]methanone], for which the inhibition constant Ki on human orexin 2 receptor was determined as 837 nM; at human orexin 1 receptor, 15 nM; on rat orexin 1 receptor, 13 nM.

In the case of `Cc1ccc(-n2nccn2)c(C(=O)N2C(C)C3CC(Nc4ccc(C(F)(F)F)cn4)C2C3)n1` (racemic) [Example 58, (R/S)-(6-methyl-3-(2H-1,2,3-triazol-2-yl)pyridin-2-yl)(3-methyl-6-((5-(trifluoromethyl)pyridin-2-yl)amino)-2-azabicyclo[2.2.1]heptan-2-yl)methanone], the inhibitory constant (Ki) at human orexin 2 receptor turned out to be 236 nM; at human orexin 1 receptor, 14 nM; at rat orexin 1 receptor it was 11 nM.

In the case of `O=C(c1ccccc1-c1ncccn1)N1[C@H](CF)[C@@H]2CC[C@H]1[C@H](Oc1ccc(C(F)(F)F)cn1)C2` [Example 75, ((1S,3S,4R,6R)-3-(fluoromethyl)-6-((5-(trifluoromethyl)pyridin-2-yl)oxy)-2-azabicyclo[2.2.2]octan-2-yl)(2-(pyrimidin-2-yl)phenyl)methanone], the inhibition constant Ki was greater than 10000 nM at human orexin 2 receptor, 66 nM on human orexin 1 receptor and 92 nM on rat orexin 1 receptor.

Regarding `C[C@@H]1[C@H]2C[C@@H](Oc3cnc(C(F)(F)F)cn3)[C@H](C2)N1C(=O)c1cc(F)ccc1-n1nccn1` (relative stereo) [Example 54, (5-fluoro-2-(2H-1,2,3-triazol-2-yl)phenyl)((1S*,3R*,4R*,6R*)-3-methyl-6-((5-(trifluoromethyl)pyrazin-2-yl)oxy)-2-azabicyclo[2.2.1]heptan-2-yl)methanone], the results for the Ki at human orexin 2 receptor, at human orexin 1 receptor and at rat orexin 1 receptor were 3400 nM, 18 nM and 26 nM, respectively.

`O=C(c1cc(F)ccc1-n1nccn1)N1[C@H](CF)[C@@H]2CC[C@H]1[C@H](Oc1ccc(C(F)(F)F)cn1)C2` [Example 78, (5-fluoro-2-(2H-1,2,3-triazol-2-yl)phenyl)((1S,3S,4R,6R)-3-(fluoromethyl)-6-((5-(trifluoromethyl)pyridin-2-yl)oxy)-2-azabicyclo[2.2.2]octan-2-yl)methanone]: the Ki on human orexin 2 receptor is greater than 10000 nM; at human orexin 1 receptor, 102 nM; on rat orexin 1 receptor, 122 nM.

As to `C[C@@H]1[C@H]2C[C@@H](Oc3ccc(C(F)(F)F)cn3)[C@H](C2)N1C(=O)c1ccccc1-c1cccc([N+](=O)[O-])n1` [Example 174, [(1R,2R,4S,5R)-2-methyl-5-[[5-(trifluoromethyl)-2-pyridyl]oxy]-3-azabicyclo[2.2.1]heptan-3-yl]-[2-(6-nitro-2-pyridyl)phenyl]methanone], the inhibitory constant (Ki) on human orexin 2 receptor was 3940 nM; at human orexin 1 receptor, 9 nM; on rat orexin 1 receptor it was 8 nM.

For `C[C@@H]1[C@H]2C[C@@H](Oc3ccc(C(F)(F)F)cn3)[C@H](C2)N1C(=O)c1cc(F)ccc1-n1nccn1` (relative stereo) [Example 29, (5-fluoro-2-(2H-1,2,3-triazol-2-yl)phenyl)((1S*,3R*,4R*,6R*)-3-methyl-6-((5-(trifluoromethyl)pyridin-2-yl)oxy)-2-azabicyclo[2.2.1]heptan-2-yl)methanone], the Ki on human orexin 2 receptor was determined as 836 nM; at human orexin 1 receptor, 14 nM; at rat orexin 1 receptor it was 5 nM.

Turning to `Cc1ccc(-n2nccn2)c(C(=O)N2[C@H](C)[C@H]3C[C@@H](Nc4ccc(C(F)(F)F)cn4)[C@@H]2C3)n1` (relative stereo) [Example 63, (6-methyl-3-(2H-1,2,3-triazol-2-yl)pyridin-2-yl)((1S*,3R*,4S*,6R*)-3-methyl-6-((5-(trifluoromethyl)pyridin-2-yl)amino)-2-azabicyclo[2.2.1]heptan-2-yl)methanone], the values for the inhibition constant (Ki) on human orexin 2 receptor, on human orexin 1 receptor and at rat orexin 1 receptor were 78 nM, 4 nM and 3 nM, respectively.

The Ki is a dissociation constant, usually derived from enzyme kinetics or from competition with a known ligand.
